The NIST ThermoML archive (doi:10.1021/je900550v)
± gives the expanded uncertainty stated by the source.

Conditions: 101.33 kPa, Liquid; for speed of sound: Pulse-echo method; for mass density: Vibrating tube method

CCCCC(=O)[O-].C[NH2+]CCO [2-hydroxy-N-methylethanaminium pentanoate]
Conditions | mass density [kg/m3] | speed of sound [m/s] | viscosity [mPa·s]
308.15 K | 1009.51 ± 2.1 | 1517.6 ± 2.1 | 133.08 ± 9.1
308.4 K | 1009.34 ± 2.1 | 1516.8 ± 2.1 | –
308.65 K | 1009.18 ± 2.1 | 1516.1 ± 2.1 | –
308.9 K | 1009.01 ± 2.1 | 1515.3 ± 2.1 | –
309.15 K | 1008.84 ± 2.1 | 1514.5 ± 2.1 | –
309.4 K | 1008.67 ± 2.1 | 1513.8 ± 2.1 | –
309.65 K | 1008.5 ± 2.1 | 1513 ± 2.1 | –
309.9 K | 1008.33 ± 2.1 | 1512.2 ± 2.1 | –
310.15 K | 1008.16 ± 2.1 | 1511.4 ± 2.1 | 117.28 ± 7
310.4 K | 1007.99 ± 2.1 | 1510.7 ± 2.1 | –
310.65 K | 1007.82 ± 2.1 | 1509.9 ± 2.1 | –
310.91 K | 1007.65 ± 2.1 | 1509.1 ± 2.1 | –
311.16 K | 1007.48 ± 2.1 | 1508.3 ± 2.1 | –
311.4 K | 1007.31 ± 2.1 | 1507.6 ± 2.1 | –
311.65 K | 1007.14 ± 2.1 | 1506.8 ± 2.1 | –
311.91 K | 1006.97 ± 2.1 | 1506 ± 2.1 | –
312.16 K | 1006.8 ± 2.1 | 1505.3 ± 2.1 | –
312.41 K | 1006.63 ± 2.1 | 1504.5 ± 2.1 | –
312.66 K | 1006.46 ± 2.1 | 1503.7 ± 2.1 | –
312.91 K | 1006.29 ± 2.1 | 1503 ± 2.1 | –
313.15 K | – | – | 102.38 ± 5.2
313.16 K | 1006.12 ± 2.1 | 1502.2 ± 2.1 | –
313.4 K | 1005.95 ± 2.1 | 1501.4 ± 2.1 | –
313.66 K | 1005.78 ± 2.1 | 1500.7 ± 2.1 | –
313.9 K | 1005.61 ± 2.1 | 1499.9 ± 2.1 | –
314.15 K | 1005.44 ± 2.1 | 1499.1 ± 2.1 | –
314.4 K | 1005.27 ± 2.1 | 1498.3 ± 2.1 | –
314.65 K | 1005.09 ± 2.1 | 1497.6 ± 2.1 | –
314.9 K | 1004.92 ± 2.1 | 1496.8 ± 2.1 | –
315.15 K | 1004.75 ± 2.1 | 1496 ± 2.1 | 91.92 ± 4.2
315.41 K | 1004.58 ± 2.1 | 1495.3 ± 2.1 | –
315.65 K | 1004.4 ± 2.1 | 1494.5 ± 2.1 | –
315.91 K | 1004.24 ± 2.1 | 1493.8 ± 2.1 | –
316.16 K | 1004.07 ± 2.1 | 1493 ± 2.1 | –
316.41 K | 1003.89 ± 2.1 | 1492.2 ± 2.1 | –
316.66 K | 1003.72 ± 2.1 | 1491.5 ± 2.1 | –
316.91 K | 1003.55 ± 2.1 | 1490.7 ± 2.1 | –
317.16 K | 1003.38 ± 2.1 | 1489.9 ± 2.1 | –
317.4 K | 1003.21 ± 2.1 | 1489.2 ± 2.1 | –
317.66 K | 1003.04 ± 2.1 | 1488.4 ± 2.1 | –
317.91 K | 1002.86 ± 2.1 | 1487.6 ± 2.1 | –
318.15 K | – | – | 80.38 ± 3.1
318.16 K | 1002.69 ± 2.1 | 1486.9 ± 2.1 | –
318.41 K | 1002.52 ± 2.1 | 1486.1 ± 2.1 | –
318.65 K | 1002.35 ± 2.1 | 1485.3 ± 2.1 | –
318.9 K | 1002.18 ± 2.1 | 1484.6 ± 2.1 | –
319.16 K | 1002 ± 2.1 | 1483.8 ± 2.1 | –
319.41 K | 1001.83 ± 2.1 | 1483.1 ± 2.1 | –
319.65 K | 1001.66 ± 2.1 | 1482.3 ± 2.1 | –
319.91 K | 1001.49 ± 2.1 | 1481.5 ± 2.1 | –
320.16 K | 1001.32 ± 2.1 | 1480.8 ± 2.1 | –
320.41 K | 1001.14 ± 2.1 | 1480 ± 2.1 | –
320.65 K | 1000.97 ± 2.1 | 1479.2 ± 2.1 | 70.74 ± 2.3
320.91 K | 1000.8 ± 2.1 | 1478.5 ± 2.1 | –
321.15 K | 1000.62 ± 2.1 | 1477.7 ± 2.1 | –
321.41 K | 1000.45 ± 2.1 | 1476.9 ± 2.1 | –
321.66 K | 1000.28 ± 2.1 | 1476.1 ± 2.1 | –
321.9 K | 1000.1 ± 2.1 | 1475.4 ± 2.1 | –
322.15 K | 999.932 ± 2.1 | 1474.6 ± 2.1 | –
322.41 K | 999.756 ± 2.1 | 1473.8 ± 2.1 | –
322.65 K | 999.586 ± 2.1 | 1473.1 ± 2.1 | –
322.91 K | 999.412 ± 2.1 | 1472.3 ± 2.1 | –
323.15 K | – | – | 66.02 ± 1.9
323.16 K | 999.237 ± 2.1 | 1471.6 ± 2.1 | –
323.41 K | 999.06 ± 2.1 | 1470.8 ± 2.1 | –
323.65 K | 998.891 ± 2.1 | 1470 ± 2.1 | –
323.91 K | 998.715 ± 2.1 | 1469.2 ± 2.1 | –
324.16 K | 998.543 ± 2.1 | 1468.5 ± 2.1 | –
324.41 K | 998.367 ± 2.1 | 1467.7 ± 2.1 | –
324.65 K | 998.196 ± 2.1 | 1467 ± 2.1 | –
324.9 K | 998.022 ± 2.1 | 1466.2 ± 2.1 | –
325.16 K | 997.846 ± 2.1 | 1465.4 ± 2.1 | –
325.4 K | 997.672 ± 2.1 | 1464.7 ± 2.1 | –
325.66 K | 997.495 ± 2.1 | 1463.9 ± 2.1 | –
325.9 K | 997.325 ± 2.1 | 1463.1 ± 2.1 | –
326.16 K | 997.148 ± 2.1 | 1462.4 ± 2.1 | –
326.41 K | 996.977 ± 2.1 | 1461.6 ± 2.1 | –
326.66 K | 996.8 ± 2.1 | 1460.8 ± 2.1 | –
326.9 K | 996.626 ± 2.1 | 1460.1 ± 2.1 | –
327.16 K | 996.452 ± 2.1 | 1459.3 ± 2.1 | –
327.4 K | 996.278 ± 2.1 | 1458.5 ± 2.1 | –
327.66 K | 996.103 ± 2.1 | 1457.8 ± 2.1 | –
327.9 K | 995.927 ± 2.1 | 1457 ± 2.1 | –
328.15 K | 995.753 ± 2.1 | 1456.2 ± 2.1 | –
328.41 K | 995.577 ± 2.1 | 1455.5 ± 2.1 | –
328.66 K | 995.401 ± 2.1 | 1454.7 ± 2.1 | –
328.9 K | 995.229 ± 2.1 | 1453.9 ± 2.1 | –
329.16 K | 995.05 ± 2.1 | 1453.2 ± 2.1 | –
329.4 K | 994.879 ± 2.1 | 1452.4 ± 2.1 | –
329.65 K | 994.701 ± 2.1 | 1451.6 ± 2.1 | –
329.9 K | 994.528 ± 2.1 | 1450.8 ± 2.1 | –
330.16 K | 994.354 ± 2.1 | 1450.1 ± 2.1 | –
330.41 K | 994.177 ± 2.1 | 1449.3 ± 2.1 | –
330.66 K | 993.999 ± 2.1 | 1448.5 ± 2.1 | –
330.91 K | 993.824 ± 2.1 | 1447.8 ± 2.1 | –
331.16 K | 993.649 ± 2.1 | 1447 ± 2.1 | –
331.41 K | 993.472 ± 2.1 | 1446.2 ± 2.1 | –
331.66 K | 993.296 ± 2.1 | 1445.5 ± 2.1 | –
331.91 K | 993.121 ± 2.1 | 1444.7 ± 2.1 | –
332.16 K | 992.945 ± 2.1 | 1443.9 ± 2.1 | –
332.41 K | 992.768 ± 2.1 | 1443.2 ± 2.1 | –
332.66 K | 992.592 ± 2.1 | 1442.4 ± 2.1 | –
332.91 K | 992.415 ± 2.1 | 1441.6 ± 2.1 | –
333.16 K | 992.239 ± 2.1 | 1440.8 ± 2.1 | –
333.41 K | 992.064 ± 2.1 | 1440.1 ± 2.1 | –
333.66 K | 991.886 ± 2.1 | 1439.3 ± 2.1 | –
333.91 K | 991.71 ± 2.1 | 1438.5 ± 2.1 | –
334.16 K | 991.536 ± 2.1 | 1437.8 ± 2.1 | –
334.41 K | 991.358 ± 2.1 | 1437 ± 2.1 | –
334.66 K | 991.18 ± 2.1 | 1436.2 ± 2.1 | –
334.91 K | 991.004 ± 2.1 | 1435.5 ± 2.1 | –
335.16 K | 990.827 ± 2.1 | 1434.7 ± 2.1 | –
335.41 K | 990.651 ± 2.1 | 1434 ± 2.1 | –
335.66 K | 990.472 ± 2.1 | 1433.2 ± 2.1 | –
335.91 K | 990.295 ± 2.1 | 1432.4 ± 2.1 | –
336.16 K | 990.117 ± 2.1 | 1431.7 ± 2.1 | –
336.41 K | 989.938 ± 2.1 | 1430.9 ± 2.1 | –
336.66 K | 989.761 ± 2.1 | 1430.1 ± 2.1 | –
336.9 K | 989.584 ± 2.1 | 1429.3 ± 2.1 | –
337.16 K | 989.407 ± 2.1 | 1428.6 ± 2.1 | –
337.4 K | 989.229 ± 2.1 | 1427.8 ± 2.1 | –
337.66 K | 989.051 ± 2.1 | 1427 ± 2.1 | –
337.9 K | 988.872 ± 2.1 | 1426.3 ± 2.1 | –
338.15 K | 988.703 ± 2.1 | 1425.6 ± 2.1 | –
